“Also recorded” adds a separate entry of the source.
Key:
[1] = system: tail lymphedema in SKH-1 mice; assay: Histology and histomorphometric quantitation of epidermal thickness (Example 4); format: in vivo, mouse; conditions: for histological changes in mice with lymphedema: hematoxylin/eosin
Protocol: Immediately after sacrifice, 0.5-g sections of tail were harvested for histological analysis and RNA extraction. Sections extended from a point 4 mm proximal to the surgical incision to 8 mm beyond it. The specimens were fixed overnight in 4% paraformaldehyde, embedded in paraffin, cut into 5-μm sections, stained with hematoxylin and eosin (Richard-Allan Scientific, Kalamazoo, Mich.), and examined by light microscopy.
Epidermal thickness was measured serially using digital images of histology slides stained with hematoxylin and eosin. Processing and analysis were performed using Adobe Photoshop CS4 and ImageJ (http://rsbweb.nih.gov/ij) as previously described with modifications (Sanders J E, et al. Comput Methods Programs Biomed. 1999; 59:167-180). Quantitative measurements were imported to Prism 5 software (GraphPad Software Inc., La Jolla, Calif.) for statistical analysis and graphing.

[2] = system: TNF-α, MCP-1, VEGF-C, VEGF-D, VEGFR-3, Prox1, LYVE-1 expression; assay: Targeted gene expression analysis by quantitative real-time RT-PCR in tail skin; format: in vivo, mouse
Protocol: Primers and probes were from Assays-on-Demand (Applied Biosystems, Foster City, Calif.). cDNA was synthesized from 5 μg of total RNA with Taqman reverse-transcription reagents (Applied Biosystems) and amplified in triplicate at 50° C. for 2 minutes and 95° C. for 10 minutes, followed by 40 cycles of 95° C. for 15 seconds and 60° C. for 1 minute. Reactions without template and/or enzyme were used as negative controls. 18S ribosomal RNA served as an internal control. A standard curve derived from embryonic mouse RNA was plotted for each target gene by linear regression using SPSS software (v. 11.0, Applied Biosystems). RNA quantity was expressed relative to the corresponding 18S control. Fold differences were calculated by dividing the experimental results by the pooled normal results and were plotted on a log 10 scale.

[3] = system: cytokine levels in tail skin; assay: Tissue cytokine assays (Luminex) in tail skin homogenates; format: in vivo, mouse
Protocol: Cytokine levels in tail skin were measured in normal controls and mice with untreated, NSAID-treated, and sTNF-R1-treated lymphedema (n=3 per group) sacrificed on postoperative day 7. The Luminex LabMap200 System was used to measure the levels of 42 cytokines from the supernatant of tissue homogenates. Multiplex cytokine kits were purchased from Panomics (Fremont, Calif.), and the assay was performed according to the manufacturer's recommendation with the following modifications: 25-50 μl of samples, standards, and controls were added in duplicate to 96-well filter plates pre-configured with a panel of anti-cytokine antibodies covalently linked to unique polystyrene beads. The plate was incubated overnight at 4° C. in the dark with shaking at 500 rpm, vacuum aspirated, and washed three times with 140 μl of wash buffer to remove unbound antigen. Biotinylated detection antibody solution (25 μl) was added to each well and incubated for 1 hour with shaking at 500 rpm at room temperature. The plate was incubated with 50 μl of streptavidin-phycoerythrin for 35 minutes and then with 120 μl of reading buffer for 3 minutes at room temperature with shaking. After laser excitation, digital images of the bead array were captured with a CCD camera and analyzed on a computer workstation with BeadView software.

[4] = Mass spectrometry of ketoprofen in tissue following topical administration; format: in vivo, mouse; conditions: topical preparation delivered daily to mice; mass spectrometry of biopsy
[5] = system: patients with lymphedema; assay: Human study: volume of fluid lost from affected limb after 90 days ketoprofen; format: in vivo; conditions: 75 mg orally twice or three times per day for 90 days
Protocol: FIG. 23. […] For the purposes of comparing bilateral results to unilateral results, volume lost in bilateral lymphedema was calculated by determining the total volume lost and dividing by 2.
Biopsies were taken pre- and post-treatment, and clinical responses were reassessed monthly. 44 participants were enrolled (FIG. 22), 38 of which had completed the study at the time the data was collected. Average age of the patient was 57 years+/−14 years (24-85 years of age). The average length of time that the patient had had lymphedema was 10+/−10 years (0.5-40 years). Lymphedema was due to the following: breast cancer (12 patients (27.3%)); cervical cancer (6 patients (13.6%)); uterine cancer (2 patients (4.5%)); ovarian cancer (2 patients (4.5%)); penile cancer (1 patient (2.3%)); Hodgkin's lymphoma (2 patients (4.5%)); trauma (5 patients (11.4%)); infection (3 patients (6.8%)); venous insufficiency (3 patients (6.8%)); May-Thurner syndrome (2 patients (4.5%)); primary lymphedema ([…]); other (2 patients (4.5%)).

[6] = system: patients with lymphedema; assay: Human study: histology of cutaneous biopsies (Hematoxylin and Eosin, Sirius Red); format: in vivo; conditions: 90 days / 3 months after start of treatment
Description: FIG. 24. Tissue architecture before and after ketoprofen treatment. (A) Cutaneous biopsies stained with Hematoxylin and Eosin. (B) Cutaneous biopsies stained with Hoechst. “Normal”: unaffected contralateral limb. “Lymphedema, Pre-Rx”: affected tissue at the start of treatment. “Lymphedema post-Rx”: affected tissue 90 days following treatment.
FIG. 25. […] Fibrotic response (thickening tissue, collagen deposition in dermis and subdermis) is quantified by measuring the mean pixel intensity of Sirius Red uptake. […] In lymphedemous tissue (LY), an increase in fibrotic tissue is observed. Three months after the start of treatment (Rx/NL), the tissue has returned to a healthy state. Y axis is the ratio of paired samples. “NL/NL”: fibrosis in unaffected tissue, normalized to the pixel intensity of Sirius Red uptake in the unaffected tissue. “LY/NL”: fibrosis at the start of treatment, normalized to the pixel intensity of Sirius Red uptake in the unaffected tissue. “Rx/NL”: fibrosis after 3 months treatment, normalized to the pixel intensity of Sirius Red uptake in the unaffected tissue.
Biopsies were taken pre- and post-treatment, and clinical responses were reassessed monthly. 44 participants were enrolled (FIG. 22), 38 of which had completed the study at the time the data was collected. Average age of the patient was 57 years+/−14 years (24-85 years of age). […]

[7] = system: CD11B+ cells and CD4+ helper T cells in affected tissue; assay: Human study: immunohistochemistry of CD11b+ and CD4+ cell infiltrates in biopsies; format: in vivo; conditions: 4th clinical follow up visit
Protocol: FIG. 26. […] 3 samples from each patient were analyzed by paired analysis: NL (biopsy from an unaffected limb), 1-LY (biopsy from affected limb), and 4-LY (4th clinical follow up visit).
FIG. 29. Quantification of CD4+ helper T cell involvement in lymphedema pathology. 3 samples from each patient were analyzed by paired analysis: NL (biopsy from an unaffected limb), 1-LY (biopsy from affected limb), and 4-LY (4th clinical follow up visit).
To determine the cellular basis for the lymphedema pathology, lymphedemous tissue was analyzed for the aberrant presence of immune cells.

[8] = system: CD30 and IgE levels; assay: Human study: serum analysis of CD30 and IgE; format: in vivo; conditions: pre to post treatment
[9] = system: patients with lymphedema; assay: Human study: participant outcomes following the clinical trial; format: in vivo
[10] = system: gene expression in lymphedemous tissue; assay: Paired whole genome transcriptional profiling of human lymphedema (Agilent human array); format: in vivo; conditions: of the 8431 genes altered in lymphedema versus normal tissue
Protocol: Paired whole genome transcriptional profiling was performed using the Agilent human array (n=30). Expression profiles of untreated and post-treated lymphedemous tissue were compared to the normal cutaneous RNA from the same subject.

[11] = Log Kow; format: physicochemical
[12] = day 11, lymphedema mice, listed as NSAID
[13] = lymphedema mice, listed as NSAID
[14] = postoperative day 7, listed as NSAID

CC(C(=O)O)c1cccc(C(=O)c2ccccc2)c1 (stereo not shown) [ketoprofen]
epidermal thickness (ET) compared to untreated LY mice ([1]; FIG. 14B): significantly reduced | epidermal thickness decreased, compared to untreated lymphedema mice ([1]; day 11): 47.0±5.1% | histological changes in mice with lymphedema ([1]; day 11): substantial normalization from the untreated histology | histological changes in mice with lymphedema ([1]; day 11, listed as NSAID): normalization of histological changes; also recorded: normalizes these pathological findings | Prox1 expression ([2]; day 11, lymphedema mice): significant, parallel up-regulation | TNF-α expression (mRNA) ([2]; day 11, lymphedema mice): further increased | MCP-1 expression (mRNA) [2, 12]: significantly induced | Prox1 expression [2, 12]: significantly induced | TNF-α expression (mRNA) [2, 12]: significantly induced | VEGF-C expression (mRNA) ([2]; lymphedema mice): significant upregulation | VEGFR-3 expression ([2]; lymphedema mice): significantly upregulated | VEGF-C expression (mRNA) [2, 13]: significant, parallel up-regulation; also recorded: significantly induced | VEGFR-3 expression [2, 13]: significant, parallel up-regulation; also recorded: significantly induced | VEGF-D expression (mRNA) ([2]; lymphedema mice, vs vehicle): significant upregulation | MCP-1 tissue levels (protein) ([3]; postoperative day 7): further increased | MCP-3 tissue levels (protein) [3, 14]: significantly reduced; also recorded: inhibited | macrophage inflammatory protein 1a (MIP1a) tissue levels [3, 14]: inhibited | TNF-α tissue levels (protein) ([3]; postoperative day 7, median fluorescence intensity): significantly higher | permeation of topically administered drug into skin layers [4]: permeates into the deepest layers of the skin | fluid lost from the affected limb, unilateral lymphedema (average) [5]: 354 milliliters | fluid lost from one affected limb, bilateral lymphedema (average) ([5]; total volume lost divided by 2): 533 milliliters | tissue architecture, protein deposition and fibrosis in cutaneous biopsies [6]: reversal of disease-associated protein deposition and fibrosis; also recorded: restoration in the tissue architecture; also recorded: abrogates the inflammation that leads to a fibrotic response in the skin | CD4+ cells in affected tissue after treatment [7]: absent | CD11B+ cells in affected tissue after treatment [7]: absent; also recorded: returns CD11b counts to normal | serum CD30 amounts, average decrease after treatment [8]: 13% | participants who describe the affected limb as normal in size [9]: 2% | participants who described relief from pain [9]: 7% | participants who discontinued chronic use of compression garments [9]: 9% | participants who elected to continue off-label treatment [9]: 100% | participants who noted that the affected limb feels lighter [9]: 7% | participants who noted that the compression garment is loose [9]: 2% | fraction of altered genes displaying directional normalization after treatment [10]: 72% | number of genes displaying directional normalization after treatment [10]: 6050 | Log Kow [11]: 3.00
